From the NIST ThermoML archive (doi:10.1016/j.jct.2017.05.001)

Assay: wn = mass fraction of the nth substance listed
Conditions: Liquid; for mass density: Vibrating tube method

OCCN(CCO)CCO [triethanolamine] + O
viscosity [mPa·s]
Conditions	w1 = 0.0992	w1 = 0.1	w1 = 0.2	w1 = 0.2991	w1 = 0.3	w1 = 0.4
293.15 K, 100 kPa, Concentric cylinders viscometry	–	1.41	2.066	–	3.197	5.34
293.15 K, 100 kPa, Falling or rolling sphere viscometry	1.429	–	2.037	3.208	–	5.317
293.15 K, 5000 kPa, Falling or rolling sphere viscometry	1.459	–	2.036	3.212	–	5.311
293.15 K, 10000 kPa, Falling or rolling sphere viscometry	1.455	–	2.035	3.229	–	5.331
293.15 K, 15000 kPa, Falling or rolling sphere viscometry	1.454	–	2.04	3.18	–	5.376
293.15 K, 20000 kPa, Falling or rolling sphere viscometry	1.45	–	2.042	3.234	–	5.417
293.15 K, 25000 kPa, Falling or rolling sphere viscometry	1.447	–	2.044	3.242	–	5.445
293.15 K, 30000 kPa, Falling or rolling sphere viscometry	1.446	–	2.046	3.245	–	5.5
293.15 K, 40000 kPa, Falling or rolling sphere viscometry	1.443	–	2.051	3.288	–	5.549
293.15 K, 60000 kPa, Falling or rolling sphere viscometry	1.44	–	2.064	3.325	–	5.675
293.15 K, 80000 kPa, Falling or rolling sphere viscometry	1.447	–	2.08	3.373	–	5.792
293.15 K, 100000 kPa, Falling or rolling sphere viscometry	1.448	–	2.098	3.446	–	5.987
313.15 K, 100 kPa, Concentric cylinders viscometry	–	0.881	1.244	–	1.786	2.756
313.15 K, 100 kPa, Falling or rolling sphere viscometry	0.909	–	1.203	1.786	–	2.788
313.15 K, 5000 kPa, Falling or rolling sphere viscometry	0.8937	–	1.208	1.797	–	2.794
313.15 K, 10000 kPa, Falling or rolling sphere viscometry	0.8956	–	1.21	1.808	–	2.797
313.15 K, 15000 kPa, Falling or rolling sphere viscometry	0.8964	–	1.214	1.818	–	2.828
313.15 K, 20000 kPa, Falling or rolling sphere viscometry	0.8965	–	1.22	1.832	–	2.852
313.15 K, 25000 kPa, Falling or rolling sphere viscometry	0.8977	–	1.225	1.835	–	2.866
313.15 K, 30000 kPa, Falling or rolling sphere viscometry	0.8992	–	1.228	1.846	–	2.889
313.15 K, 40000 kPa, Falling or rolling sphere viscometry	0.9027	–	1.231	1.861	–	2.928
313.15 K, 60000 kPa, Falling or rolling sphere viscometry	0.91	–	1.251	1.893	–	3.028
313.15 K, 80000 kPa, Falling or rolling sphere viscometry	0.9177	–	1.276	1.933	–	3.115
313.15 K, 100000 kPa, Falling or rolling sphere viscometry	0.9261	–	1.282	1.98	–	3.193
333.15 K, 100 kPa, Concentric cylinders viscometry	–	0.621	0.821	–	1.173	1.669
333.15 K, 100 kPa, Falling or rolling sphere viscometry	0.6124	–	0.8083	1.147	–	1.67
333.15 K, 5000 kPa, Falling or rolling sphere viscometry	0.6114	–	0.8084	1.154	–	1.68
333.15 K, 10000 kPa, Falling or rolling sphere viscometry	0.6149	–	0.8125	1.164	–	1.698
333.15 K, 15000 kPa, Falling or rolling sphere viscometry	0.6154	–	0.8177	1.168	–	1.704
333.15 K, 20000 kPa, Falling or rolling sphere viscometry	0.6178	–	0.82	1.178	–	1.72
333.15 K, 25000 kPa, Falling or rolling sphere viscometry	0.6198	–	0.8238	1.181	–	1.738
333.15 K, 30000 kPa, Falling or rolling sphere viscometry	0.6221	–	0.8283	1.189	–	1.748
333.15 K, 40000 kPa, Falling or rolling sphere viscometry	0.625	–	0.8329	1.203	–	1.771
333.15 K, 60000 kPa, Falling or rolling sphere viscometry	0.6327	–	0.8473	1.225	–	1.826
333.15 K, 80000 kPa, Falling or rolling sphere viscometry	0.6418	–	0.8631	1.253	–	1.878
333.15 K, 100000 kPa, Falling or rolling sphere viscometry	0.6513	–	0.8789	1.293	–	1.964

mass density [kg/m3]
Conditions	w1 = 0.0992	w1 = 0.2	w1 = 0.2991	w1 = 0.4
293.15 K, 100 kPa	1013.3	1029.5	1046.1	1065.2
293.15 K, 500 kPa	1013.5	1029.5	1046.2	1065.3
293.15 K, 1000 kPa	1013.7	1029.7	1046.4	1065.4
293.15 K, 2000 kPa	1014.2	1030.2	1046.8	1065.8
293.15 K, 5000 kPa	1015.5	1031.4	1047.9	1066.9
293.15 K, 10000 kPa	1017.6	1033.4	1049.8	1068.7
293.15 K, 15000 kPa	1019.6	1035.4	1051.7	1070.5
293.15 K, 20000 kPa	1021.8	1037.4	1053.7	1072.3
293.15 K, 30000 kPa	1026	1041.4	1057.4	1075.8
293.15 K, 40000 kPa	1030	1045.2	1061.1	1079.3
293.15 K, 50000 kPa	1034	1049	1064.7	1082.7
293.15 K, 60000 kPa	1037.9	1052.7	1068.3	1086.1
293.15 K, 70000 kPa	1041.8	1056.4	1071.8	1089.4
293.15 K, 80000 kPa	1045.5	1059.8	1075.1	1092.5
293.15 K, 90000 kPa	1049.1	1063.4	1078.5	1095.8
293.15 K, 100000 kPa	1052.9	1066.9	1081.8	1098.9
293.15 K, 110000 kPa	1056.3	1070.2	1084.9	1101.8
293.15 K, 120000 kPa	1059.8	1073.6	1088.2	1104.9
293.15 K, 130000 kPa	1063.3	1077	1091.5	1107.9
293.15 K, 140000 kPa	1066.5	1080.1	1094.5	1110.8
313.15 K, 100 kPa	1006.9	1021.9	1037.4	1055.1
313.15 K, 500 kPa	1007	1022.1	1037.5	1055.3
313.15 K, 1000 kPa	1007.2	1022.3	1037.7	1055.4
313.15 K, 2000 kPa	1007.6	1022.7	1038.1	1055.8
313.15 K, 5000 kPa	1008.9	1023.9	1039.3	1056.9
313.15 K, 10000 kPa	1010.9	1025.9	1041.2	1058.8
313.15 K, 15000 kPa	1013	1027.8	1043.1	1060.6
313.15 K, 20000 kPa	1015	1029.7	1045	1062.4
313.15 K, 30000 kPa	1019.1	1033.7	1048.8	1066
313.15 K, 40000 kPa	1023	1037.6	1052.6	1069.7
313.15 K, 50000 kPa	1026.8	1041.2	1056.1	1073.2
313.15 K, 60000 kPa	1030.7	1044.9	1059.7	1076.6
313.15 K, 70000 kPa	1034.4	1048.5	1063.2	1079.9
313.15 K, 80000 kPa	1038	1051.9	1066.6	1083.1
313.15 K, 90000 kPa	1041.6	1055.3	1069.9	1086.3
313.15 K, 100000 kPa	1045.2	1058.8	1073.3	1089.5
313.15 K, 110000 kPa	1048.6	1062.1	1076.4	1092.7
313.15 K, 120000 kPa	1052	1065.6	1079.6	1095.7
313.15 K, 130000 kPa	1055.3	1068.7	1082.8	1098.7
313.15 K, 140000 kPa	1058.5	1071.9	1085.9	1101.7
333.15 K, 100 kPa	997.2	1011.6	1026.3	1043.1
333.15 K, 500 kPa	997.5	1011.8	1026.5	1043.3
333.15 K, 1000 kPa	997.7	1012	1026.7	1043.5
333.15 K, 2000 kPa	998.1	1012.4	1027.2	1043.9
333.15 K, 5000 kPa	999.3	1013.6	1028.3	1045.1
333.15 K, 10000 kPa	1001.4	1015.7	1030.4	1047.1
333.15 K, 15000 kPa	1003.5	1017.7	1032.4	1049
333.15 K, 20000 kPa	1005.5	1019.7	1034.3	1050.9
333.15 K, 30000 kPa	1009.6	1023.6	1038.2	1054.7
333.15 K, 40000 kPa	1013.6	1027.7	1042.1	1058.4
333.15 K, 50000 kPa	1017.5	1031.4	1045.7	1062
333.15 K, 60000 kPa	1021.3	1035	1049.4	1065.6
333.15 K, 70000 kPa	1024.8	1038.6	1052.9	1069
333.15 K, 80000 kPa	1028.6	1042.1	1056.3	1072.3
333.15 K, 90000 kPa	1032	1045.6	1059.7	1075.5
333.15 K, 100000 kPa	1035.6	1049.1	1063.2	1078.9
333.15 K, 110000 kPa	1039	1052.3	1066.3	1082
333.15 K, 120000 kPa	1042.5	1055.8	1069.8	1085.3
